Data on 5 molecules can be found in patent publication US20220348885A1, “BIOLOGICALLY RELEVANT IN VITRO SCREENING OF HUMAN NEURONS” (The Board of Trustees of the Leland Stanford Junior …, priority 2016, published 2022).

Assay [1] relates to neural co-cultures consisting of primary glial cells and glutamatergic excitatory iN cells. In words: MEA recording of neuronal network activity, pure excitatory co-culture (Example 3). In kind it is cell-based, human. The note with it: for decrease of the frequency of total bursts / decrease of the frequency of total spikes (mean firing rate): dosed vs baseline. How it is done:
Induced excitatory neurons were seeded at day 4 after induction by transcriptional activation of the neurogenic transcription factor NGN2, on 12-well MEA plates (Axion BioSystems) coated with matrigel. A total of 600,000 iN cells were plated per well. Primary glial cells were obtained by dissociating brains of mouse pups at postnatal day 3 with hippocampal and cerebellar structures being removed in advance. Dissociated brains were pre-cultured and passaged twice to remove primary neurons. Glial cells were then seeded directly on the plated iN cells at a density of 120,000 cells per well.
Recordings of spontaneous neuronal activity were performed at 1, 2, 3, and 4 weeks after plating for a period of 10 minutes each.
Neural co-cultures were produced as described under Example 1. […] Recordings were performed at week 4 in culture for 10 minutes for each condition including baseline measurements prior to compound application and test measurements following the addition of a single compound. Between baseline and test condition recordings, the plates were store in an incubator (37° C., 5% CO2) to readjust pH of the media. Each compound was applied to a different well in order to prevent secondary effects of previous treatments. First, the effect of the common compound solvent DMSO was tested by adding 0.1% to the neural co-culture medium. As depicted in FIG. 6A i and ii, DMSO alone increased the frequency of total spikes (mean firing rate) and the frequency of total bursts by 0.2 Hz and 0.018 Hz, respectively. Moreover, a minor increase in synchrony could be detected increasing the percentage of bursts within synchronized network activity by approximately 5%.

Assay [2] has as its system neural co-cultures consisting of primary human glial cells and a mixture of glutamatergic excitatory iN cells and GABAergic inhibitory iN cells. In words: Bicuculline-induced seizure-like network activity on MEA and co-application of antiepileptic drugs (Example 7). The class given is cell-based. The following applies: co-application with 1 μM bicuculline, 3 doses. How it is done:
Generation of human neural co-cultures and MEA recording settings and thresholds were as described under Example 6. […] Co-application of AEDs was performed in 3 different doses and each condition was tested in 6 technical replicates.

Assay [3] deals with neural co-cultures consisting of primary glial cells and a mixture of glutamatergic excitatory iN cells and GABAergic inhibitory iN cells. In words: MEA recording of neuronal network activity, mixed excitatory/inhibitory co-culture approx. 70%/30% (Example 4). The class given is cell-based, human. The following applies: 50 μM, excitatory/inhibitory approx. 70%/30%. Here is the method: Induced excitatory neurons were seeded at day 4 and induced inhibitory neurons were seeded at day 6 after induction. A total of 200000 excitatory iN cells and 200000 inhibitory iN cells were plated simultaneously per well on 12-well MEA plates (Axion BioSystems) coated with matrigel. Primary glial cells were obtained as described in Example 1, and seeded directly on the plated iN cells at a density of 100000 cells per well.
Neural co-cultures were produced as described under Example 2 resulting in excitatory/inhibitory iN cell ratio of approximately 70%/30%. Recordings of neuronal activity, threshold values, and the procedure of measuring baseline and test conditions were performed as described under Example 3. Here, the effect of PTX was tested by adding a final concentration of 50 μM to the neural co-culture medium.

Assay [4] relates to neural co-cultures with a stronger inhibitory component (excitatory/inhibitory iN cells 50%/50%, glial cells from human primary NSCs). In words: MEA recording of neuronal network activity, mixed excitatory/inhibitory co-culture approx. 50%/50% with human glial cells (Example 4, second experiment). The class given is cell-based. The note with it: 50 μM, excitatory/inhibitory approx. 50%/50%, 4 weeks in culture. How it is done:
In a second experiment, the effect of PTX on synchronized neuronal network activity in neural co-cultures with a stronger inhibitory component was assessed. For this purpose, a total of 100,000 excitatory iN cells and 300,000 inhibitory iN cells were plated simultaneously per well on 12-well MEA plates (Axion BioSystems) coated with matrigel. Glial cells were derived from human primary NSCs as described above and seeded directly on the plated iN cells at a density of 100,000 cells per well. Due to the different apoptosis rates of the two iN cells types mentioned earlier, the final ratio of excitatory/inhibitory neurons after 4 weeks in culture was approximately 50%/50%.
The effect of PTX was tested by adding a final concentration of 50 μM to the neural co-culture medium.

Entries after “also recorded” stand apart in the source; their conditions may differ.

As to `NC(CCCP(=O)(O)O)C(=O)O` (stereo not shown) [AP5], in assay [1] (50 μM, week 4 in culture), the “reduction of the average duration of bursts” value is “about 30%”, the “synchronized network activity as measured by network burst percentage” value is “reduced”, the “decrease of the frequency of total bursts” value was 0.004 Hz and the “decrease of the frequency of total spikes (mean firing rate)” value is recorded as 0.2 Hz.
Turning to `O=C1NC(=O)C(c2ccccc2)(c2ccccc2)N1` [phenytoin], the “mean firing rate, network burst duration, and synchrony” value in assay [2] is reported as “to baseline level (solvent control), or further reduced; also recorded: dose-dependent decrease”.
For the molecule `N#Cc1cc2[nH]c(=O)c(=O)[nH]c2cc1[N+](=O)[O-]` [CNQX], in assay [1] (20 μM, week 4 in culture), the “occurrence of synchronized network activity” value was “completely abolished”, the “decrease of the frequency of total bursts” value was 0.005 Hz and the “decrease of the frequency of total spikes (mean firing rate)” value was determined as 0.4 Hz.
For the molecule picrotoxin [PTX], in assay [3], the “increase of synchrony of network bursts” value is listed as ~60%; the “spike and burst frequencies” value is “increase”. For the same molecule, the “change in spike and burst frequencies and synchronized network activity” value in assay [1] (50 μM in 0.1% DMSO, pure excitatory culture without GABAergic cells) was “largely corresponded to the changes observed upon application of 0.1% DMSO”. Further, the “synchronized network burst pattern” value in assay [4] is on record as “extended synchronized bursts with shortening inter-burst intervals”.
With `Nc1nnc(-c2cccc(Cl)c2Cl)c(N)n1` [lamotrigine], the “mean firing rate, network burst duration, and synchrony” value in assay [2] is listed as “to baseline level (solvent control), or further reduced; also recorded: dose-dependent decrease”.
